The values that follow are results of earlier work, collected in US7393852B2, “Piperazine derivatives and methods of use” (Amgen Inc., priority 2003, dated 2008).

Structures are written as SMILES. Peptide text beside a SMILES is read from it.

For `NC(N)=NCCC[C@H](NC(=O)[C@H](Cc1ccccc1)NC(=O)[C@@H]1CCCN1C(=O)[C@H](CO)NC(=O)[C@H](Cc1ccccc1)NC(=O)CNC(=O)[C@@H]1CCCN1C(=O)[C@@H]1CCCN1C(=O)[C@@H](N)CCCN=C(N)N)C(=O)O` [BK, Bradykinin] (H-RPPGFSPFR-OH), the “half-life of BK in plasma” value is “approximately 17 seconds”.
